Test results published in patent publication US9125416B2, “Pesticidal mixtures” (BASF SE, priority 2010, dated 2015).

What was measured:
Type in all cases: in vivo
[1] = tested on: green peach aphid (Myzus persicae); assay: Test 2: Control of Green Peach Aphid, liquid artificial diet under artificial membrane, 96-well-microtiter plates; settings: aphid mortality and fecundity after 3 days
[2] = tested on: boll weevil (Anthonomus grandis); assay: Test 3: Control of Boll Weevil, insect diet with A. grandis eggs, 24-well-microtiter plates; settings: sprayed onto insect diet, egg and larval mortality after 5 days
[3] = tested on: vetch aphid (Megoura viciae); assay: Test 1: Control of Vetch Aphid, broad bean leaf disks in 24-well-microtiter plates; settings: sprayed on leaf disks, aphid mortality and fecundity after 5 days

Q: How did the “Oberved Control average” value ([1]; 0.016 ppm in aphid diet) turn out when abamectin was run?
A: Its value is 0%.

Q: With `O=C1C=C(N(CCF)Cc2ccc(Cl)nc2)CO1` [Compound M26.4, 4-{[(6-chloropyrid-3-yl)methyl](2-fluoroethyl)amino}furan-2(5H)-on] as the compound, how does the “Oberved Control average” value ([2]; 2 ppm) read?
A: The value was 0%.

Q: `Cc1c(COC(=O)[C@@H]2[C@H](/C=C(\Cl)C(F)(F)F)C2(C)C)cccc1-c1ccccc1` (racemic) [Bifenthrin, bifenthrin] was tested. Which “Oberved Control average” value ([3]; 2 ppm) did it give?
A: Its value is 0%.

Q: What about the “Oberved Control average” value ([1]; 0.08 ppm in aphid diet) of the same compound?
A: Its value is 0%.

Q: What does the source list for `C[C@]1(COC(=O)C2CC2)[C@@H]2C[C@H](O)[C@@]3(C)Oc4cc(-c5cccnc5)oc(=O)c4[C@H](O)[C@@H]3[C@@]2(C)CC[C@@H]1OC(=O)C1CC1` [Compound I, [(3S,4R,4aR,6S,6aS,12R,12aS,12bS)-3-(cyclopropanecarbonyloxy)-6,12-dihydroxy-4,6a,12b-trimethyl-11-oxo-9-(pyridin-3-yl)-1,2,3,4,4a,5,6,6a,12a,12b-decahydro-11H,12H-benzo[f]pyrano[4,3-b]chromen-4-yl]methyl cyclopropanecarboxylate]?
A: Oberved Control average ([2]; 0.02 ppm): 0%; Oberved Control average ([3]; 0.004 ppm): 25%; Oberved Control average ([1]; 0.004 ppm in aphid diet): 0%
